Measurements reported in US20110224210A1, “NOVEL BIS-AMIDES AS ANTI-MALARIAL AGENTS” (priority 2008, published 2011).

System: P. falciparum K1 (strain resistant to chloroquine and pyrimethamine), erythrocytic stages
Experiment: Plasmodium falciparum in vitro assay, [3H] hypoxanthine incorporation
Assay type: cell-based
Settings: Plasmodium falciparum, K1, P. falciparum strain K1; [3H] hypoxanthine incorporation; read-out: IC50 (nM) on K1
Outline: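 Chloroquine/pyrimethamine-resistant K1 erythrocytic cultures (2.5% haematocrit, 0.3% parasitaemia, hypoxanthine-free RPMI with Albumax) exposed to seven doubling dilutions at 37 °C under low O2.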

| Compound | IC50 [nM] |
| --- | --- |
| COCCN(C)C(=O)[C@H](Cc1ccccc1)N(Cc1ccc(-c2ccncc2)cc1)C(=O)C=Cc1cc(C)on1 [Example 95, (S)-N-{1-[(2-Methoxy-ethyl)-methyl-carbamoyl]-2-phenyl-ethyl}-3-(5-methyl-isoxazol-3-yl)-N-(4-pyridin-4-yl-benzyl)-acrylamide] | 33 |
| COCCN(C)C(=O)[C@H](Cc1ccccc1)N(Cc1ccc(-c2ccncc2)cc1)C(=O)C=Cc1c(C)noc1C [Example 96, (S)-3-(3,5-Dimethyl-isoxazol-4-yl)-N-{1-[(2-methoxy-ethyl)-methyl-carbamoyl]-2-phenyl-ethyl}-N-(4-pyridin-4-yl-benzyl)-acrylamide] | 20 |
| COCCN(C)C(=O)[C@H](Cc1ccccc1)N(Cc1ccc(-c2ccncc2)cc1)C(=O)C=Cc1nc(C)oc1C [Example 97, (S)-3-(2,5-Dimethyl-oxazol-4-yl)-N-{1-[(2-methoxy-ethyl)-methyl-carbamoyl]-2-phenyl-ethyl}-N-(4-pyridin-4-yl-benzyl)-acrylamide] | 15 |
| COCCN(C)C(=O)[C@H](Cc1ccccc1)N(Cc1ccc(-c2ccncc2)cc1)C(=O)C=Cc1csnn1 [Example 98, (S)-N-{1-[(2-Methoxy-ethyl)-methyl-carbamoyl]-2-phenyl-ethyl}-N-(4-pyridin-4-yl-benzyl)-3-[1,2,3]thiadiazol-4-yl-acrylamide] | 98 |
| COCCN(C)C(=O)[C@H](Cc1ccccc1)N(Cc1ccc(-c2ccncc2)cc1)C(=O)C=Cc1ccc(Cl)nc1 [Example 99, (S)-3-(6-Chloro-pyridin-3-yl)-N-{1-[(2-methoxy-ethyl)-methyl-carbamoyl]-2-phenyl-ethyl}-N-(4-pyridin-4-yl-benzyl)-acrylamide] | 17 |
| COCCN(C)C(=O)[C@H](Cc1ccccc1)N(Cc1ccc(-c2ccncc2)cc1)C(=O)C=Cc1ccc(C)cn1 [Example 100, (S)-N-{1-[(2-Methoxy-ethyl)-methyl-carbamoyl]-2-phenyl-ethyl}-3-(5-methyl-pyridin-2-yl)-N-(4-pyridin-4-yl-benzyl)-acrylamide] | 12 |
| COCCN(C)C(=O)[C@H](Cc1ccccc1)N(Cc1ccc(-c2ccncc2)cc1)C(=O)C=Cc1ccc(OC)nc1 [Example 101, (S)-N-{1-[(2-Methoxy-ethyl)-methyl-carbamoyl]-2-phenyl-ethyl}-3-(6-methoxy-pyridin-3-yl)-N-(4-pyridin-4-yl-benzyl)-acrylamide] | 8 |
| COCCN(C)C(=O)[C@H](Cc1ccccc1)N(Cc1ccc(-c2ccncc2)cc1)C(=O)C=Cc1ccc(C(F)(F)F)cn1 [Example 102, (S)-N-{1-[(2-Methoxy-ethyl)-methyl-carbamoyl]-2-phenyl-ethyl}-N-(4-pyridin-4-yl-benzyl)-3-(5-trifluoromethyl-pyridin-2-yl)-acrylamide] | 6 |
| COCCN(C)C(=O)[C@H](Cc1ccccc1)N(Cc1ccc(N2CCN(C(C)=O)CC2)cc1)C(=O)C=Cc1ccn(C)n1 [Example 103, (S)-N-[4-(4-Acetyl-piperazin-1-yl)-benzyl]-N-{1-[(2-methoxy-ethyl)-methyl-carbamoyl]-2-phenyl-ethyl}-3-(1-methyl-1H-pyrazol-3-yl)-acrylamide] | 438 |
| COCCN(C)C(=O)[C@H](Cc1ccccc1)N(Cc1ccc(N2CCN(C(C)=O)CC2)cc1)C(=O)C=Cc1cc(C)nn1C [Example 104, (S)-N-[4-(4-Acetyl-piperazin-1-yl)-benzyl]-3-(2,5-dimethyl-2H-pyrazol-3-yl)-N-{1-[(2-methoxy-ethyl)-methyl-carbamoyl]-2-phenyl-ethyl}-acrylamide] | 45 |
| COCCN(C)C(=O)[C@H](Cc1ccccc1)N(Cc1ccc(N2CCN(C(C)=O)CC2)cc1)C(=O)C=Cc1c(C)nn(C)c1C [Example 105, (S)-N-[4-(4-Acetyl-piperazin-1-yl)-benzyl]-N-{1-[(2-methoxy-ethyl)-methyl-carbamoyl]-2-phenyl-ethyl}-3-(1,3,5-trimethyl-1H-pyrazol-4-yl)-acrylamide] | 44 |
| COCCN(C)C(=O)[C@H](Cc1ccccc1)N(Cc1ccc(N2CCN(C(C)=O)CC2)cc1)C(=O)C=Cc1cnc(C)n1C [Example 106, (S)-N-[4-(4-Acetyl-piperazin-1-yl)-benzyl]-3-(2,3-dimethyl-3H-imidazol-4-yl)-N-{1-[(2-methoxy-ethyl)-methyl-carbamoyl]-2-phenyl-ethyl}-acrylamide] | 470 |
| COCCN(C)C(=O)[C@H](Cc1ccccc1)N(Cc1ccc(N2CCN(C(C)=O)CC2)cc1)C(=O)C=Cc1sc(C)nc1C [Example 107, (S)-N-[4-(4-Acetyl-piperazin-1-yl)-benzyl]-3-(2,4-dimethyl-thiazol-5-yl)-N-{1-[(2-methoxy-ethyl)-methyl-carbamoyl]-2-phenyl-ethyl}-acrylamide] | 70 |
| COCCN(C)C(=O)[C@H](Cc1ccccc1)N(Cc1ccc(N2CCN(C(C)=O)CC2)cc1)C(=O)C=Cc1csc(C)n1 [Example 108, (S)-N-[4-(4-Acetyl-piperazin-1-yl)-benzyl]-N-{1-[(2-methoxy-ethyl)-methyl-carbamoyl]-2-phenyl-ethyl}-3-(2-methyl-thiazol-4-yl)-acrylamide] | 225 |
| COCCN(C)C(=O)[C@H](Cc1ccccc1)N(Cc1ccc(N2CCN(C(C)=O)CC2)cc1)C(=O)C=Cc1c(C)noc1C [Example 109, (S)-N-[4-(4-Acetyl-piperazin-1-yl)-benzyl]-3-(3,5-dimethyl-isoxazol-4-yl)-N-{1-[(2-methoxy-ethyl)-methyl-carbamoyl]-2-phenyl-ethyl}-acrylamide] | 100 |
| COCCN(C)C(=O)[C@H](Cc1ccccc1)N(Cc1ccc(N2CCN(C(C)=O)CC2)cc1)C(=O)C=Cc1nc(C)oc1C [Example 110, (S)-N-[4-(4-Acetyl-piperazin-1-yl)-benzyl]-3-(2,5-dimethyl-oxazol-4-yl)-N-{1-[(2-methoxy-ethyl)-methyl-carbamoyl]-2-phenyl-ethyl}-acrylamide] | 324 |
| COCCN(C)C(=O)[C@H](Cc1ccccc1)N(Cc1ccc(N2CCN(C(C)=O)CC2)cc1)C(=O)C=Cc1ccc(OC)nn1 [Example 111, (S)-N-[4-(4-Acetyl-piperazin-1-yl)-benzyl]-N-{1-[(2-methoxy-ethyl)-methyl-carbamoyl]-2-phenyl-ethyl}-3-(6-methoxy-pyridazin-3-yl)-acrylamide] | 214 |

The next lines start with the values.

| IC50 [nM] | Compound |
| --- | --- |
| 153 | COCCN(C)C(=O)[C@H](Cc1ccccc1)N(Cc1ccc(N2CCN(C(C)=O)CC2)cc1)C(=O)C=Cc1ccc(C)nc1 [Example 112, (S)-N-[4-(4-Acetyl-piperazin-1-yl)-benzyl]-N-{1-[(2-methoxy-ethyl)-methyl-carbamoyl]-2-phenyl-ethyl}-3-(6-methyl-pyridin-3-yl)-acrylamide] |
| 84 | COCCN(C)C(=O)[C@H](Cc1ccccc1)N(Cc1ccc(N2CCN(C(C)=O)CC2)cc1)C(=O)C=Cc1ccc(Cl)nc1 [Example 113, (S)-N-[4-(4-Acetyl-piperazin-1-yl)-benzyl]-3-(6-chloro-pyridin-3-yl)-N-{1-[(2-methoxy-ethyl)-methyl-carbamoyl]-2-phenyl-ethyl}-acrylamide] |
| 107 | COCCN(C)C(=O)[C@H](Cc1ccccc1)N(Cc1ccc(N2CCN(C(C)=O)CC2)cc1)C(=O)C=Cc1ccc(C)cn1 [Example 114, (S)-N-[4-(4-Acetyl-piperazin-1-yl)-benzyl]-N-{1-[(2-methoxy-ethyl)-methyl-carbamoyl]-2-phenyl-ethyl}-3-(5-methyl-pyridin-2-yl)-acrylamide] |
| 32 | COCCN(C)C(=O)[C@H](Cc1ccccc1)N(Cc1ccc(N2CCN(C(C)=O)CC2)cc1)C(=O)C=Cc1ccc(OC)nc1 [Example 115, (S)-N-[4-(4-Acetyl-piperazin-1-yl)-benzyl]-N-{1-[(2-methoxy-ethyl)-methyl-carbamoyl]-2-phenyl-ethyl}-3-(6-methoxy-pyridin-3-yl)-acrylamide] |
| < 8 | COCCN(C)C(=O)[C@H](Cc1ccccc1)N(Cc1ccc(N2CCN(C(C)=O)CC2)cc1)C(=O)C=Cc1ccc(C(F)(F)F)cn1 [Example 116, (S)-N-[4-(4-Acetyl-piperazin-1-yl)-benzyl]-N-{1-[(2-methoxy-ethyl)-methyl-carbamoyl]-2-phenyl-ethyl}-3-(5-trifluoromethyl-pyridin-2-yl)-acrylamide] |
| 117 | COCCN(C)C(=O)[C@H](Cc1ccccc1)N(Cc1ccc(N2CCN(C(C)=O)CC2)cc1)C(=O)C=Cc1cnn(C)c1C [Example 117, (S)-N-[4-(4-Acetyl-piperazin-1-yl)-benzyl]-3-(1,5-dimethyl-1H-pyrazol-4-yl)-N-{1-[(2-methoxy-ethyl)-methyl-carbamoyl]-2-phenyl-ethyl}-acrylamide] |
| 104 | COCCN(C)C(=O)[C@H](Cc1ccccc1)N(Cc1ccc(N2CCN(C(C)=O)CC2)cc1)C(=O)C=Cc1cnc(OC)nc1 [Example 118, (S)-N-[4-(4-Acetyl-piperazin-1-yl)-benzyl]-N-{1-[(2-methoxy-ethyl)-methyl-carbamoyl]-2-phenyl-ethyl}-3-(2-methoxy-pyrimidin-5-yl)-acrylamide] |
| 81 | COCCN(C)C(=O)[C@H](Cc1ccccc1)N(Cc1ccc(-c2cncnc2)cc1)C(=O)C=Cc1ccn(C)n1 [Example 119, (S)-N-{1-[(2-Methoxy-ethyl)-methyl-carbamoyl]-2-phenyl-ethyl}-3-(1-methyl-1H-pyrazol-3-yl)-N-(4-pyrimidin-5-yl-benzyl)-acrylamide] |
| 285 | COCCN(C)C(=O)[C@H](Cc1ccccc1)N(Cc1ccc(-c2cncnc2)cc1)C(=O)C=Cc1cnc(C)n1C [Example 120, (S)-3-(2,3-Dimethyl-3H-imidazol-4-yl)-N-{1-[(2-methoxy-ethyl)-methyl-carbamoyl]-2-phenyl-ethyl}-N-(4-pyrimidin-5-yl-benzyl)-acrylamide] |
| 28 | COCCN(C)C(=O)[C@H](Cc1ccccc1)N(Cc1ccc(-c2cncnc2)cc1)C(=O)C=Cc1sc(C)nc1C [Example 121, (S)-3-(2,4-Dimethyl-thiazol-5-yl)-N-{1-[(2-methoxy-ethyl)-methyl-carbamoyl]-2-phenyl-ethyl}-N-(4-pyrimidin-5-yl-benzyl)-acrylamide] |
